In patent US9950072B2, “Controlled release formulations for the delivery of HIF-1 inhibitors” (The Johns Hopkins University, priority 2012, dated 2018):
Entries after “also recorded” stand apart in the source; their conditions may differ.

Assays:
[1] = system: choroidal NV in C57BL/6 mice; assay: Laser-induced choroidal NV (rupture of Bruch's membrane) mouse model; type: in vivo; details: 14 days, vs fellow eyes injected with vehicle
Experimental: Pathogen-free C57BL/6 mice (Charles River, Wilmington, Mass.) were treated in accordance with the Association for Research in Vision and Ophthalmology Statement for the Use of Animals in Ophthalmic and Vision Research and the guidelines of the Johns Hopkins University Animal Care and Use Committee.
Choroidal NV was induced by laser photocoagulation-induced rupture of Bruch's membrane as previously described (Tobe, T. et al., Am. J. Pathol. 135(5): 1641-1646 (1998)). […] Laser photocoagulation (75 μm spot size, 0.1 sec duration, 120 mW) was performed in the 9, 12, and 3 o'clock positions of the posterior pole of each eye with the slit lamp delivery system of an OcuLight GL diode laser (Iridex, Mountain View, Calif.) and a handheld cover slip as a contact lens to view the retina. Production of a bubble at the time of laser, which indicates rupture of Bruch's membrane, is an important factor in obtaining CNV; therefore, only burns in which a bubble was produced were included in the study.
Immediately after laser-induced rupture of Bruch's membrane, mice were randomized to various treatment groups for intraocular injections. Intravitreal injections were done under a dissecting microscope with a Harvard Pump Microinjection System and pulled glass micropipettes.
At 1, 4, 7, and 14 days after injection, fundus photographs were taken with a Micron III® camera (Phoenix Research Laboratories Inc., Pleasanton, Calif.). After 14 days, the mice were perfused with 1 ml of PBS containing 25 mg/ml of fluorescein-labeled dextran (2×10^6 Daltons average molecular weight; Sigma-Aldrich, St. Louis, Mo.) and choroidal flat mounts were examined by fluorescence microscopy. Images were captured with a Nikon Digital Still Camera DXM1200 (Nikon Instruments Inc., New York, N.Y.). Image analysis software (Image-Pro® Plus; Media Cybernetics, Silver Spring, Md.) was used to measure the total area of CNV at each rupture site with the investigator masked with respect to treatment group.

[2] = system: retinal NV in C57BL/6 mice with oxygen-induced ischemic retinopathy; assay: Oxygen-induced ischemic retinopathy, area of retinal NV; type: in vivo; details: measured five days later (P17)
Experimental: At P17, the area of retinal NV on the surface of the retina was measured. […] Retinas were dissected, washed, and incubated with goat-anti rat polyclonal antibody conjugated with Alexa 488 (Invitrogen, Carlsbad, Calif.) at 1:500 dilution at room temperature for 45 minutes and flat mounted. An observer masked with respect to treatment group measured the area of NV per retina by image analysis.

[3] = system: retinal function in C57BL/6 mice; assay: Electroretinograms (ERGs) after intraocular injection
Experimental: For scotopic recordings, mice were dark adapted overnight, and for photopic recordings, mice were adapted for 10 min to background white light at an intensity of 30 cd/m^2. The mice were anesthetized with an intraperitoneal injection of ketamine hydrochloride (100 mg/kg body weight) and xylazine (5 mg/kg body weight). Pupils were dilated with Midrin P containing of 0.5% tropicamide and 0.5% phenylephrine, hydrochloride (Santen Pharmaceutical Co., Osaka, Japan). The mice were placed on a pad heated to 39° C. and platinum loop electrodes were placed on each cornea after application of Gonioscopic prism solution (Alcon Labs, Fort Worth, Tex.). A reference electrode was placed subcutaneously in the anterior scalp between the eyes and a ground electrode was inserted into the tail. The head of the mouse was held in a standardized position in a ganzfeld bowl illuminator that ensured equal illumination of the eyes. Recordings for both eyes were made simultaneously with electrical impedance balanced. Scotopic ERGs were recorded at 11 intensity levels of white light ranging from −3.00 to 1.40 log cd-s/m2. Six measurements were averaged for each flash intensity. Photopic ERGs were recorded at three intensity levels of white light ranging from 0.60 to 1.40 log cd-s/m2 with a 30 cd/m2 background. Five measurements were averaged for each flash intensity.

[4] = system: photoreceptor cells (ONL) of C57BL/6 mice; assay: Outer nuclear layer (ONL) thickness after intraocular injection; type: in vivo; details: 0.25 μg intraocular; one week
Experimental: ONL thickness was measured. […] Mice were euthanized, a mark was placed at 12:00 at the corneal limbus, and eyes were removed and embedded in optimal cutting temperature compound. Ten micrometer frozen sections were cut parallel to the 12:00 or 9:00 meridian through the optic nerve and fixed in 4% paraformaldehyde. The sections were stained with hematoxylin and eosin, examined with an Axioskop microscope (Zeiss, Thornwood, N.Y.), and images were digitized using a three charge-coupled device (CCD) color video camera (IK-TU40A; Toshiba, Tokyo, Japan) and a frame grabber. Image-Pro Plus software (Media Cybernetics, Silver Spring, Md.) was used to outline the ONL.

[5] = system: HIF-1 transcriptional activity and ocular NV; details: intraocular injections of 0.01-0.25 μg; cited from earlier work
[6] = 0.1 μg intraocular injection after laser
[7] = 1.0 μg intraocular injection after laser
[8] = 10 μg intraocular injection after laser
[9] = 1 μg intraocular, fourteen days

Compound | area of CNV [1, 6] | area of CNV [1, 7] | area of CNV [1, 8] | area of RNV ([2]; 0.01 μg intraocular at P12) | area of RNV ([2]; 0.1 μg intraocular at P12) | area of RNV ([2]; 1.0 μg intraocular at P12) | mean scotopic and photopic b-wave amplitudes [3, 9] | outer nuclear layer thickness [4] | effect on HIF-1 transcriptional activity and ocular NV [5] | mean scotopic and photopic b-wave amplitudes ([3]; 0.05 μg intraocular) | ERG amplitudes (scotopic a-wave, scotopic b-wave, photopic b-wave) ([3]; 0.25 μg intraocular, one week)
COc1cccc2c1C(=O)c1c(O)c3c(c(O)c1C2=O)C[C@@](O)(C(C)=O)C[C@@H]3O[C@H]1C[C@H](N)[C@H](O)[C@H](C)O1 [DNR, daunorubicin] | had no significant effect; also recorded: did not show a statistically significant reduction in the area of CNV | had no significant effect; also recorded: did not show a statistically significant reduction in the area of CNV | suppressed choroidal NV; also recorded: statistically significant reduction in the area of CNV | had no significant effect; also recorded: did not show a statistically significant reduction in the area of RNV | caused a small reduction; also recorded: statistically significant reduction in the area of RNV | markedly reduced the area of retinal NV; also recorded: statistically significant reduction in the area of RNV | significant reduction in mean scotopic and photopic b-wave amplitudes | – | – | – | –
COc1cccc2c1C(=O)c1c(O)c3c(c(O)c1C2=O)C[C@@](O)(C(=O)CO)C[C@@H]3O[C@H]1C[C@H](N)[C@H](O)[C@H](C)O1 [DXR, doxorubicin] | did not have a significant effect; also recorded: did not show a statistically significant reduction in the area of CNV | did not have a significant effect; also recorded: did not show a statistically significant reduction in the area of CNV | suppressed choroidal NV; also recorded: statistically significant reduction in the area of CNV | but not 0.1 or 0.01 μg, significantly reduced; also recorded: did not show a statistically significant reduction in the area of RNV | but not 0.1 or 0.01 μg, significantly reduced; also recorded: did not show a statistically significant reduction in the area of RNV | significantly reduced the area of retinal NV; also recorded: statistically significant reduction in the area of RNV | significant reduction in mean scotopic and photopic b-wave amplitudes | – | – | – | –
C[C@H]1O[C@@H](O[C@H]2[C@@H](O)C[C@H](O[C@H]3[C@@H](O)C[C@H](O[C@H]4CC[C@@]5(C)[C@H](CC[C@@H]6[C@@H]5C[C@@H](O)[C@]5(C)[C@@H](C7=CC(=O)OC7)CC[C@]65O)C4)O[C@@H]3C)O[C@@H]2C)C[C@H](O)[C@@H]1O [digoxin] | – | – | – | – | – | – | – | reduction in outer nuclear layer thickness at 3 of 6 measurement locations | suppress HIF-1 transcriptional activity and ocular NV | significant reduction in mean scotopic and photopic b-wave amplitudes | significant reduction in mean scotopic a-wave amplitude, mean scotopic b-wave amplitude, and mean photopic b-wave amplitude
